The record followed here is PMC10003107, “Selectivity of Hydroxamate- and Difluoromethyloxadiazole-Based Inhibitors of Histone Deacetylase 6 In Vitro and in Cells” (International Journal of Molecular Sciences, 2023).

Structures are written as SMILES. Where “and” joins values, the source holds several entries; their conditions need not be identical. Equal values may be shown once.

Holding throughout (format): biochemical
One assay addresses T1, HDAC10 (Homo sapiens, UniProt Q969S8).
T1 construct: HDAC10 1 – 667 Open Biosystems; Strep-FLAG-HALO (N); made in house; host or cells: HEK293/T17
T1 sequence (Q969S8 1-667): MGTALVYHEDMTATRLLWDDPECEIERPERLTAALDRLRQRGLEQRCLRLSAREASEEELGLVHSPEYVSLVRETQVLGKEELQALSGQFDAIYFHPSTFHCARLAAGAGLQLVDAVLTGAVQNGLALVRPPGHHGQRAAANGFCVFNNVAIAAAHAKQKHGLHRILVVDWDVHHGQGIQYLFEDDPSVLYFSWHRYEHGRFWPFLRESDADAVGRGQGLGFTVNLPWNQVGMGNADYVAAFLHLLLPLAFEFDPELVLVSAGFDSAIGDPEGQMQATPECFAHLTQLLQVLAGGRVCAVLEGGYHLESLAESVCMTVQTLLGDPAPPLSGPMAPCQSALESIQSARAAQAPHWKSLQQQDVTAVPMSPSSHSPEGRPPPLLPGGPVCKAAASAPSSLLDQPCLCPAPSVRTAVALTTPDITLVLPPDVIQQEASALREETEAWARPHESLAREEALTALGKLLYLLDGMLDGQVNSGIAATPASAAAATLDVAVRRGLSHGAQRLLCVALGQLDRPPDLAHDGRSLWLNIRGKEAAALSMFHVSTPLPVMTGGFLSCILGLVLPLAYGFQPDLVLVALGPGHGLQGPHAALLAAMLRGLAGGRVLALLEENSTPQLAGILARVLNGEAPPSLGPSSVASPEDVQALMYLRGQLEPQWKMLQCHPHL
Briefly: In vitro deacetylation assay, HDAC10 (fluorescein-labeled N8-acetylspermidine, RP-HPLC). The settings on record: for IC50: purified human HDAC10, read-out: IC50 HDAC10; for SI (HD6/HD10): ratio of IC50 HDAC10 divided by IC50 HDAC6.

Another assay addresses T2, HDAC6 (Homo sapiens, UniProt Q9UBN7).
T2 construct: HDAC6 2-1215 Open Biosystems; Strep-FLAG-HALO (N); made in house; host or cells: HEK293/T17
T2 sequence (Q9UBN7 2-1215): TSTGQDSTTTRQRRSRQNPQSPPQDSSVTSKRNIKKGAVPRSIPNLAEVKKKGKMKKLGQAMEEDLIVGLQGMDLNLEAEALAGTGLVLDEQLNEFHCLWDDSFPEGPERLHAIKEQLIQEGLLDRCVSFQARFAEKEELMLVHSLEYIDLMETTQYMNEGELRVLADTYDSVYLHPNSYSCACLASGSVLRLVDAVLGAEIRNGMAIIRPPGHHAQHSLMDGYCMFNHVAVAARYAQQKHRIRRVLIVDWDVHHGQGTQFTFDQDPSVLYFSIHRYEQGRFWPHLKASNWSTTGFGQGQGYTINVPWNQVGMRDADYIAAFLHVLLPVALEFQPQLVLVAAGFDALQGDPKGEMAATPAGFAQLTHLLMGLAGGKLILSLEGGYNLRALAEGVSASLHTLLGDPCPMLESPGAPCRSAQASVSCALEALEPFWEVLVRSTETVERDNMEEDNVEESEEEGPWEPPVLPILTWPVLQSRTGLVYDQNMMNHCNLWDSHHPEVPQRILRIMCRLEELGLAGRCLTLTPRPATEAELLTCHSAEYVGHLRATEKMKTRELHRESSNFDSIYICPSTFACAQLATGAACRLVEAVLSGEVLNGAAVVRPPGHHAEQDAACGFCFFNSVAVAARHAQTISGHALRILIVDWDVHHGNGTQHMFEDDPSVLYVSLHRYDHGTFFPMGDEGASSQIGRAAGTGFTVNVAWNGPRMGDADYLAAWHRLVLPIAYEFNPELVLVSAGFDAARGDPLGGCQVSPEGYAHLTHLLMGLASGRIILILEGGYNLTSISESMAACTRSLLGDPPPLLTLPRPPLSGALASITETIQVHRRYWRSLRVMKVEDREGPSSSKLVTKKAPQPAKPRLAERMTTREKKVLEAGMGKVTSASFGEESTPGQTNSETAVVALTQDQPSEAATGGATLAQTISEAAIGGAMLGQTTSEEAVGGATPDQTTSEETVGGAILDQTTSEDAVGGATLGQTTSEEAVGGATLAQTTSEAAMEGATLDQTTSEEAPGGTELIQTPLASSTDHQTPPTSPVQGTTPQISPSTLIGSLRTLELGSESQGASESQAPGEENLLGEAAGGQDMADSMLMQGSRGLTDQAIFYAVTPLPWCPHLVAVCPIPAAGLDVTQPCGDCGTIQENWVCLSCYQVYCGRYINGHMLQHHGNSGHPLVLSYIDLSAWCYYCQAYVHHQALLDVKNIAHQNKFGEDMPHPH
Kind of assay: In vitro deacetylation assay, HDAC6 (GAK substrate). The following applies: for EC50: Figure 2C, in vitro data in μM; for IC50: purified human HDAC6, Ac-GAK-Ac-AMC (GAK) substrate 10 µM.

Another assay deals with all other HDAC isoforms. Briefly: In vitro isotype selectivity screening against panel of zinc-dependent human HDACs. As to the method: Customized assays were used for individual HDAC isoforms to reflect their distinct substrate specificity. All reactions were carried out in the activity buffer comprising 50 mM HEPES, 140 mM NaCl, 10 mM KCl, pH 7.4 supplemented with 1 mg/mL bovine serum albumin (BSA) and 1 mM tris(2-carboxyethyl) phosphine (TCEP).
HDACs 1–9, 11: Assays were performed essentially as described previously. Briefly, the Ac-GAK-Ac-AMC substrate was used to determine the activity of HDACs 1, 2, 3, and 6; and the Boc-Lys(TFA)-AMC substrate was used for HDACs 4, 5, 7, 8, 9, and 11 (both substrates Bachem, Bubendorf, Switzerland). […] Released aminometyl coumarine was quantified using a CLARIOstar plate reader (BMG Labtech GmbH, Ortenberg, Germany) at λex/λem = 365/440 nm.
HDAC10: Recombinant human HDAC10 (0.5 nM) in the reaction buffer was preincubated with a 3-fold dilution series of a tested inhibitor at 37 °C for 15 min and the reaction initiated by the addition of a substrate (N8-acetylspermidine labeled with fluorescein; 10 µM final concentration) in a total volume of 50 µL. […] Reaction mixtures were analyzed by RP-HPLC with a Kinetex 2.6 μm XB-C18 100 Å column with a fluorescence detector set to λEX/λEM = 492/516.
HDAC inhibition was calculated using corresponding non-inhibited reactions as a control. […]

Usually IC50 stands for the point on the concentration scale where inhibition reaches its midpoint. Broadly, the EC50 is the concentration needed to bring the measured effect to its halfway point. A lower EC50 goes with a more potent agent.

As for `O=C(NO)c1cnc(NC2(c3cccc(F)c3)CCCCC2)nc1` [ACY-775], on HDAC10, the IC50 worked out at 34 nM and the “SI (HD6/HD10)” value was 30.6. Besides, on HDAC6, the concentration for a half-maximal effect (EC50) turned out to be 0.0011 µM and the IC50 stood at 1.11 nM.

Consider `CS(=O)(=O)N(Cc1ccc(-c2nnc(C(F)F)o2)cn1)c1cccc(Cl)c1` [compound 7, N-(3-chlorophenyl)-N-((5-(5-(difluoromethyl)-1,3,4-oxadiazol-2-yl)pyridin-2-yl)methyl)methanesulfonamide], for which, on HDAC10, the IC50 is more than 50000 nM and the “SI (HD6/HD10)” value is given as >25,000. The “selectivity for HDAC6 over all other HDAC isoforms” value with all other HDAC isoforms was 10,000 fold and > 10,000 fold. At HDAC6, the concentration giving a half-maximal response (EC50) amounted to 0.0021 µM; the IC50 is 2.1 nM and 2.06 nM.
